In ChEMBL document CHEMBL5154724, “Cathepsin D inhibitors based on tasiamide B derivatives with cell membrane permeability” (Bioorg Med Chem, 2022):
Counter-ions that a name gives are not always drawn. *1 amine or outer side, *2 acyl side, *3 side chain or, on linkers, in order; H or OH if unused. Where a SMILES comes first, the peptide text is derived from it. [ ]: non-standard residue; d: D form. The star is where a group is joined. Ahppa(3S,4S) = O=C(C[C@H](O)[C@H](Cc1ccccc1)N[*:1])[*:2]; dNMeF = CN[C@H](Cc1ccccc1)C(=O)O; NMeQ = CN[C@@H](CCC(N)=O)C(=O)O; Cbz = O=C(OCc1ccccc1)*

What was measured:
A549 = assay: Antiproliferative activity against human A549 cells assessed as reduction in cell viability after 72 hrs by CCK-8 assay; type: functional, cell-based; conditions: A549, 72 h
HepG2 = assay: Antiproliferative activity against human HepG2 cells assessed as reduction in cell viability after 72 hrs by CCK-8 assay; type: functional, cell-based; conditions: HepG2, 72 h
MDA-MB-231 [1] = assay: Antiproliferative activity against human MDA-MB-231 cells assessed as reduction in cell viability at 10 uM after 72 hrs by CCK-8 assay relative to control; type: functional
MDA-MB-231 [2] = assay: Antiproliferative activity against human MDA-MB-231 cells assessed as reduction in cell viability after 72 hrs by CCK-8 assay; type: functional, cell-based; conditions: MDA-MB-231, 72 h
[3] = Drug uptake in human MDA-MB-231 cells assessed as increase in internalization at 10 uM after 16 to 24 hrs by LTG/Hoechst 33258 staining based confocal laser scanning microscopy; type: ADME, cell-based; conditions: mda-mb-231, 10 µM, time 16-24 hrs
Cathepsin D = Cathepsin D (Homo sapiens, UniProt P07339); assay: Inhibition of recombinant human liver Cathepsin D using Mca-Gly-Lys-Pro-Ile-Leu-Phe-Phe-Arg-Leu-Lys-(Dnp)-D-Arg-NH2 as substrate incubated for 120 mins by fluorescence assay
Cathepsin E = biological target: T1, Cathepsin E (Homo sapiens, UniProt P14091); assay: Inhibition of Cathepsin E (unknown origin) using Mca-Gly-Lys-Pro-Ile-Leu-Phe-Phe-Arg-Leu-Lys-(Dnp)-D-Arg-NH2 as substrate incubated for 120 mins by fluorescence assay
T1 sequence (P14091 whole entry): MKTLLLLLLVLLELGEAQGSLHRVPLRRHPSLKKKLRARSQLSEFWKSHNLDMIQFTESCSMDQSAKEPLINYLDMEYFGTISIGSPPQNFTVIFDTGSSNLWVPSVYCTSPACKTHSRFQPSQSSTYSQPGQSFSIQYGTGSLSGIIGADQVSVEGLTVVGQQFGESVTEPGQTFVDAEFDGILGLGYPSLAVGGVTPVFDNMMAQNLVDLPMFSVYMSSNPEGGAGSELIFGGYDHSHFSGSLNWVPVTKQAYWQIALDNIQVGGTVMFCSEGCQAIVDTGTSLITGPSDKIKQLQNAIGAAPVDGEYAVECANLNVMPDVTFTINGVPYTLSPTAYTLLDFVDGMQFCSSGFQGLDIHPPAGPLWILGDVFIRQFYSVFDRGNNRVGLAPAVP

Beta-secretase 1 = Beta-secretase 1 (Homo sapiens, UniProt P56817); assay: Inhibition of BACE1 (unknown origin) using Mca-Ser-Glu-Val-Asn-Leu-Asp-Ala-Glu-Phe-Arg-Lys(Dnp)-Arg-Arg-NH2 as substrate incubated for 120 mins by fluorescence assay
[4] = Drug uptake in human MDA-MB-231 cells assessed as increase in internalization at 10 uM after 3 to 24 hrs by LTG/Hoechst 33258 staining based confocal laser scanning microscopy; type: ADME, cell-based; conditions: mda-mb-231, 10 µM, time 3-24 hrs
[5] = Drug uptake in human MDA-MB-231 cells assessed as increase in co-localization with lysosomal at 10 uM after 16 hrs by LTG/Hoechst 33258 staining based confocal laser scanning microscopy; type: ADME, cell-based; conditions: mda-mb-231, 16 h

Sequence of Cathepsin D (P07339 65-162 limits assumed): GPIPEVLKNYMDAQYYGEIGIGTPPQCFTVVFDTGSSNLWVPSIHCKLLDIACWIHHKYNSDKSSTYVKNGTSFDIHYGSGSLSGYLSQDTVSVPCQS
Sequence of Cathepsin D (P07339 169-412 limits assumed): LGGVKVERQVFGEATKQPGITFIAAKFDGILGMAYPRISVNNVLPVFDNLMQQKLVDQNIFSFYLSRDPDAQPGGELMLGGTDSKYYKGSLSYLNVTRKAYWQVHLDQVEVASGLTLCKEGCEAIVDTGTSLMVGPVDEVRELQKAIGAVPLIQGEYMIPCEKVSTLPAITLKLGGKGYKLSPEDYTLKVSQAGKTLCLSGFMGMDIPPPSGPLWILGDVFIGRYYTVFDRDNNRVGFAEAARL
Sequence of Beta-secretase 1 (P56817 whole entry): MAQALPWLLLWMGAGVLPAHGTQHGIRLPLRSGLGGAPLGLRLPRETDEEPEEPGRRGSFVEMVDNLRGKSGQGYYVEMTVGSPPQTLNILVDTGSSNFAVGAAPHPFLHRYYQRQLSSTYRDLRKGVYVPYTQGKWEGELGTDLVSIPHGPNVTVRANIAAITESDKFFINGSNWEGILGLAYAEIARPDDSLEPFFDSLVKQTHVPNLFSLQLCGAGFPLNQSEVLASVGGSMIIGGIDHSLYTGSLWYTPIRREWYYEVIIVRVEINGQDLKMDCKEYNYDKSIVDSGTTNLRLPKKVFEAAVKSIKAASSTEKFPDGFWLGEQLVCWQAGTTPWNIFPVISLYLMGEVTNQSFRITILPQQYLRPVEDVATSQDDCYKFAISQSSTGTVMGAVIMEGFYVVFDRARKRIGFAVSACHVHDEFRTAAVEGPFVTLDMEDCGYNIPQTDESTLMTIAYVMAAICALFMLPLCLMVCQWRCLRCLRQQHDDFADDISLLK

COC(=O)[C@@H]1CCCN1C(=O)[C@@H](Cc1ccccc1)N(C)C(=O)[C@H](C)NC(=O)[C@H](CC(C)C)NC(=O)C[C@H](O)[C@H](Cc1ccccc1)NC(=O)[C@H](CCC(N)=O)N(C)C(=O)[C@@H](NC(=O)OCc1ccccc1)C(C)C (Cbz-V[NMeQ][Ahppa(3S,4S)]LA[dNMeF]P-OMe)
IC50 (A549): > 10000 nM | IC50 (HepG2): > 10000 nM | inhibition at 10 µM (MDA-MB-231 [1]): 14% | IC50 (MDA-MB-231 [2]): > 10000 nM

CC(C)C[C@H](NC(=O)C[C@H](O)[C@H](Cc1ccccc1)NC(=O)[C@H](CCC(N)=O)N(C)C(=O)[C@@H](NC(=O)OCc1ccccc1)C(C)C)C(=O)N[C@@H](C)C(=O)N(C)[C@H](Cc1ccc(O)cc1)C(=O)N1CCC[C@H]1C(=O)NCCOCCOCCn1cc(CNC(=O)[C@H](CCCCNC(=O)[C@H](CCCCN)NC(=O)[C@H](CCCCN)NC(=O)[C@H](CCC(N)=O)NC(=O)[C@H](CO)NC(=O)CCN2c3ccccc3C(C)(C)[C@]23C=Cc2cc([N+](=O)[O-])ccc2O3)NC(=O)[C@H](CCCCN)NC(=O)[C@H](CCCCN)NC(=O)C(CCC(N)=O)NC(=O)[C@H](CO)NC(=O)CCN2c3ccccc3C(C)(C)[C@]23CCc2cc([N+](=O)[O-])ccc2O3)nn1 (some centres not stated)
Drug uptake [3]: Active | IC50 (Cathepsin D): 22 nM | IC50 (Cathepsin E): 12 nM | IC50 (A549): > 10000 nM | IC50 (HepG2): > 10000 nM | inhibition at 10 µM (MDA-MB-231 [1]): 52% | IC50 (Beta-secretase 1): 828 nM | IC50 (MDA-MB-231 [2]): 9100 nM

COC(=O)[C@@H]1CCCN1C(=O)[C@@H](Cc1ccc(O)cc1)N(C)C(=O)[C@H](C)NC(=O)[C@H](CC(C)C)NC(=O)C[C@H](O)[C@H](Cc1ccccc1)NC(=O)[C@H](CCC(N)=O)N(C)C(=O)[C@@H](NC(=O)OCc1ccccc1)C(C)C
IC50 (Cathepsin D): 0.178 nM | IC50 (Cathepsin E): 104 nM | IC50 (A549): > 10000 nM | IC50 (HepG2): > 10000 nM | inhibition at 10 µM (MDA-MB-231 [1]): 12% | IC50 (MDA-MB-231 [2]): > 10000 nM

C#CCNC(=O)[C@H](CCCCNC(=O)[C@H](CCCCN)NC(=O)[C@H](CCCCN)NC(=O)[C@H](CCC(N)=O)NC(=O)[C@H](CO)NC(=O)CCN1c2ccccc2C(C)(C)[C@]12CCc1cc([N+](=O)[O-])ccc1O2)NC(=O)[C@H](CCCCN)NC(=O)[C@H](CCCCN)NC(=O)C(CCC(N)=O)NC(=O)[C@H](CO)NC(=O)CCN1c2ccccc2C(C)(C)[C@]12CCc1cc([N+](=O)[O-])ccc1O2 (some centres not stated)
Drug uptake [4]: Active | Drug uptake [5]: Active

CC(C)C[C@H](NC(=O)C[C@H](O)[C@H](Cc1ccccc1)NC(=O)[C@H](CCC(N)=O)N(C)C(=O)[C@@H](NC(=O)OCc1ccccc1)C(C)C)C(=O)N[C@@H](C)C(=O)N(C)[C@H](Cc1ccccc1)C(=O)N1CCC[C@H]1C(=O)O
IC50 (Cathepsin D): 4.89 nM | IC50 (Cathepsin E): 120 nM

CC(C)C[C@H](NC(=O)C[C@H](O)[C@H](Cc1ccccc1)NC(=O)[C@H](CCC(N)=O)N(C)C(=O)[C@@H](NC(=O)OCc1ccccc1)C(C)C)C(=O)N[C@@H](C)C(=O)N(C)[C@H](Cc1ccc(OC(C)(C)C)cc1)C(=O)N1CCC[C@H]1C(=O)O
IC50 (Cathepsin D): 19 nM | IC50 (Cathepsin E): 187 nM

CC(C)C[C@H](NC(=O)C[C@H](O)[C@H](Cc1ccccc1)NC(=O)[C@H](CCC(N)=O)N(C)C(=O)[C@@H](NC(=O)OCc1ccccc1)C(C)C)C(=O)N[C@@H](C)C(=O)N(C)[C@H](Cc1ccccc1)C(=O)N1CCC[C@H]1C(=O)NCCOCCOCCn1cc(CNC(=O)[C@H](CCCCNC(=O)[C@H](CCCCN)NC(=O)[C@H](CCCCN)NC(=O)[C@H](CCC(N)=O)NC(=O)[C@H](CO)NC(=O)CCN2c3ccccc3C(C)(C)[C@]23C=Cc2cc([N+](=O)[O-])ccc2O3)NC(=O)[C@H](CCCCN)NC(=O)[C@H](CCCCN)NC(=O)C(CCC(N)=O)NC(=O)[C@H](CO)NC(=O)CCN2c3ccccc3C(C)(C)[C@]23CCc2cc([N+](=O)[O-])ccc2O3)nn1 (some centres not stated)
Drug uptake [3]: Active | IC50 (Cathepsin D): 41 nM | IC50 (Cathepsin E): 100 nM | IC50 (A549): > 10000 nM | IC50 (HepG2): > 10000 nM | inhibition at 10 µM (MDA-MB-231 [1]): 49% | IC50 (Beta-secretase 1): 1030 nM | IC50 (MDA-MB-231 [2]): > 10000 nM

COC(=O)[C@@H]1CCCN1C(=O)[C@@H](Cc1ccc(OC(C)(C)C)cc1)N(C)C(=O)[C@H](C)NC(=O)[C@H](CC(C)C)NC(=O)C[C@H](O)[C@H](Cc1ccccc1)NC(=O)[C@H](CCC(N)=O)N(C)C(=O)[C@@H](NC(=O)OCc1ccccc1)C(C)C
IC50 (Cathepsin D): 18 nM | IC50 (Cathepsin E): 105 nM

COc1cccc2c1C(=O)c1c(O)c3c(c(O)c1C2=O)C[C@@](O)(C(=O)CO)C[C@@H]3O[C@H]1C[C@H](N)[C@H](O)[C@H](C)O1 [DOXORUBICIN HYDROCHLORIDE]
IC50 (A549): 400 nM | inhibition at 10 µM (MDA-MB-231 [1]): 70% | IC50 (MDA-MB-231 [2]): 370 nM
